Source: ChEMBL document CHEMBL1148571, “Synthesis of 131I-labeled glucose-conjugated inhibitors of O6-methylguanine-DNA methyltransferase (MGMT) and comparison with nonconjugated inhibitors as potential tools for in vivo MGMT imaging” (J Med Chem, 2006)

Target: T1, Methylated-DNA--protein-cysteine methyltransferase (Homo sapiens) (UniProt P16455)
T1 sequence (whole entry): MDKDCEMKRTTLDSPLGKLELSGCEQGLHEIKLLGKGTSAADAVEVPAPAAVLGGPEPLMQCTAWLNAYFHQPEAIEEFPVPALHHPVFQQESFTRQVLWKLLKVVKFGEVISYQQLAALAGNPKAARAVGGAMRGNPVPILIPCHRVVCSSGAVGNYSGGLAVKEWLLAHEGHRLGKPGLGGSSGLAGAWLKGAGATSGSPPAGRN
Test: Binding to human MGMT
Conditions: tested as the 131I-labelled form

Activity [%]	Structure (SMILES)
80	Nc1nc(OCc2ccc(I)s2)c2[nH]cnc2n1
97	Nc1nc(OCc2cccc(I)c2)c2[nH]cnc2n1
